Patent US20070264355A1, “BINARY COMPOSITIONS AND METHODS FOR STERILIZATION” (Binary, LLC, priority 2005, published 2007)

Assays:
Staphylococcus aureus = test: Microbicidal activity of commonly used antiseptics against Staphylococcus aureus; assay type: cell-based; conditions: inoculum 1475000 CFU
Method: (§1) The performance of commonly used antiseptics was tested against Bacillus subtilis and Staphylococcus aureus, following the general procedure of Example 1, to assess the improvement provided by the binary system over these compounds.
[…] Chlorhexidine and IPA were neutralized with 500 microliters of a solution containing 3% Saponin, 3% Tween-80, 0.3% lecithin, and 0.1% histidine. Povidone Iodine was neutralized with 500 microliters of thiosulfate solution (2.4%).

Bacillus subtilis spores = test: Microbicidal activity of commonly used antiseptics against Bacillus subtilis spores; assay type: cell-based; conditions: inoculum 1865000 CFU
Method: as §1
After 60 minutes of exposure to the organisms, the individual antiseptics, indicated in Table 15 and Table 16, were neutralized using the corresponding neutralizing solutions prepared as listed below in Materials. Chlorhexidine and IPA were neutralized with 500 microliters of a solution containing 3% Saponin, 3% Tween-80, 0.3% lecithin, and 0.1% histidine. Povidone Iodine was neutralized with 500 microliters of thiosulfate solution (2.4%).

[1] = two percent, compared to 70% isopropyl alcohol and 10% povidone-iodine; cited from earlier work

[H]/N=C(\N/C(=N/[H])NCCCCCCNC(=N)NC(=N)Nc1ccc(Cl)cc1)Nc1ccc(Cl)cc1 [Chlorhexidine, Chlorhexidine Gluconate]
Log 10 (CFU + 1) Survivors (Staphylococcus aureus; Chlorhexidine 0.020% 15 min): 0.0
Log Reduction (Staphylococcus aureus; Chlorhexidine 0.020% 15 min): 6.2
Total Viability (CFU) (Staphylococcus aureus; Chlorhexidine 0.020% 15 min): 0 CFU
Log 10 (CFU + 1) Survivors (Staphylococcus aureus; Chlorhexidine 0.200% 15 min): 0.0
Log Reduction (Staphylococcus aureus; Chlorhexidine 0.200% 15 min): 6.2
Total Viability (CFU) (Staphylococcus aureus; Chlorhexidine 0.200% 15 min): 0 CFU
Log 10 (CFU + 1) Survivors (Staphylococcus aureus; Chlorhexidine 2% 15 min): 0.0
Log Reduction (Staphylococcus aureus; Chlorhexidine 2% 15 min): 6.2
Total Viability (CFU) (Staphylococcus aureus; Chlorhexidine 2% 15 min): 0 CFU
Log 10 (CFU + 1) Survivors (Staphylococcus aureus; Chlorhexidine 20% 15 min): 0.0
Log Reduction (Staphylococcus aureus; Chlorhexidine 20% 15 min): 6.2
Total Viability (CFU) (Staphylococcus aureus; Chlorhexidine 20% 15 min): 0 CFU
Log 10 (CFU + 1) Survivors (Bacillus subtilis spores; Chlorhexidine 0.020% 60 min): 5.8
Log Reduction (Bacillus subtilis spores; Chlorhexidine 0.020% 60 min): 0.4
Total Viability (CFU) (Bacillus subtilis spores; Chlorhexidine 0.020% 60 min): 672000 CFU
Log 10 (CFU + 1) Survivors (Bacillus subtilis spores; Chlorhexidine 0.200% 60 min): 4.3
Log Reduction (Bacillus subtilis spores; Chlorhexidine 0.200% 60 min): 2.0
Total Viability (CFU) (Bacillus subtilis spores; Chlorhexidine 0.200% 60 min): 20020 CFU
Log 10 (CFU + 1) Survivors (Bacillus subtilis spores; Chlorhexidine 2% 60 min): 5.0
Log Reduction (Bacillus subtilis spores; Chlorhexidine 2% 60 min): 1.3
Total Viability (CFU) (Bacillus subtilis spores; Chlorhexidine 2% 60 min): 102200 CFU
Log 10 (CFU + 1) Survivors (Bacillus subtilis spores; Chlorhexidine 20% 60 min): 5.5
Log Reduction (Bacillus subtilis spores; Chlorhexidine 20% 60 min): 0.7
Total Viability (CFU) (Bacillus subtilis spores; Chlorhexidine 20% 60 min): 350000 CFU
prevention of catheter-related infections [1]: superior
